Where two headings read alike, the source gives them in different places.
How the values were obtained:
ATXN2-luc = assay: Secondary assays: ATXN2-luc in S2 and H2 cells, 12 doses, Bright-Glo; assay type: cell-based, human; settings: summary data; for IC50: ATXN2-luc luciferase assays in H2 and S2 cells, 12 doses plus a zero dose, read-out: Mean IC50; for min ATXN2-luc (%): minimum ATXN2-luc signal over 12 doses, H2 and S2 cells
in vitro = settings: human
Procedure: (§1) The values for H2 and S2 were used as replicates to calculate IC50s and to assess cell viability.
(§2) Compounds were plated at 2× concentrations in phenol red–free DMEM in 25 μl in 384-well plates with each compound dose plated in triplicate. An equal volume of S2, H2, or SC cells (24,000 cells/well) suspended in phenol red–free DMEM with 10% fetal bovine serum and 1× penicillin/streptomycin were added. Cells were grown 24 h and then assayed first by using the CellTiter-Fluor reagent (20 μl) followed by the addition of Bright-Glo (65 μl) luciferase assay, using a multimode plate reader (Beckman; DT880). Values were reported as the mean ± SD with n = 3. IC50s were determined by the Hill coefficient method using an online tool (https://www.aatbio.com/tools/ic50-calculator).

CMV-luc = assay: Secondary assays: CMV-luc in SC cells, Bright-Glo; assay type: cell-based, human; settings: minimum CMV-luc signal in SC cells over 12 doses; summary data
Procedure: as §2

S2, H2 or SC cells = assay: Secondary assays: multiplexed cell viability (CellTiter-Fluor)
Procedure: as §1, §2

[1] = minimum viability, multiplexed CellTiter-Fluor, over 12 doses, summary data

Compound | IC50 (ATXN2-luc; Homo sapiens) | min ATXN2-luc (%) (ATXN2-luc) | viability at 24 h (in vitro) | min SC luc (%) (CMV-luc) | IC50 (ATXN2-luc) | min viability (%) (S2, H2 or SC cells; [1]) | min viability (%) (S2, H2 or SC cells)
CNC(=O)c1cc(Oc2ccc(NC(=O)Nc3cc(C(C)(C)C)nn3-c3ccc4ncccc4c3)c(F)c2)ccn1 [NCGC00263172-01, DCC-2036] | 3730 nM | 27.0713% | 56.6% | 60.5803% |  |  | 
S=C(NCc1ccc2c(c1)OCO2)N1CCN(c2ncnc3c2oc2ccccc23)CC1 [NCGC00263158-01, MP470] | 3020 nM | 55.0637% | 87.7% | 74.2577% |  |  | 
CC1(C)CC(=O)c2c(C(F)(F)F)nn(-c3ccc(C(N)=O)c(N[C@H]4CC[C@H](O)CC4)c3)c2C1 [NCGC00346633-01, SNX 2112] |  |  | 83.3% | 82.2819% |  |  | 
O=C(NC1CCNCC1)c1[nH]ncc1NC(=O)c1c(Cl)cccc1Cl [NCGC00263091-01, AT7519] | 162 nM | 14.5407% | 50.3% | 103.668% |  |  | 
Cc1cc(Nc2cc(CN3CCOCC3)c3nc(C)c(Cc4ccc(Cl)cc4F)n3n2)n[nH]1 [NCGC00345461-02, LY2784544] | 21100 nM | 23.1503% | 81.6% | 67.1857% |  |  | 
Cc1cnc(NC(=O)CN2CCN(c3ccccn3)CC2)s1 [MLS000035284-02] |  | 38.5658% |  | 4.094% | 12900 nM | 76.8459% | 
O=c1[nH]c(=O)n([C@H]2C[C@H](O)[C@@H](CO)O2)cc1F [NCGC00023722-07, Floxuridine] | 166 nM | 25.6595% | 97.9% | 37.5061% |  |  | 
Cc1ccc2nc(NCCN)c3ncc(C)n3c2c1 [NCGC00165761-02] |  | 20.5589% |  | 96.0167% | 4050 nM |  | 77.5673%
C[C@@H]1CCC/C=C\[C@H]2C[C@H](O)C[C@@H]2[C@H](O)/C=C\C(=O)O1 [NCGC00017254-02, (+)-Brefeldin A] |  | 44.7226% |  | 84.381% | 2890 nM | 72.9816% | 
O=c1[nH]c2ccc(Cl)cc2c(N[C@@H]2CN3CCC2CC3)c1-c1nc2ccccc2[nH]1 [NCGC00346626-01, CHIR-124] |  | 17.9767% |  | 69.3978% | 219 nM | 75.0552% | 
CN(C)CCN1C(=O)c2cccc3cc(N)cc(c23)C1=O [NCGC00346513-01, amonafide] | 1840 nM | 21.7231% | 68.2% | 69.6561% |  |  | 
Cn1cc(-c2cnn3c(N)c(Br)c([C@H]4CCCNC4)nc23)cn1 [NCGC00346653-01] |  | 25.4941% |  | 91.5137% | 388 nM | 87.0431% | 
CN[C@@H]1CN(c2ccc3c(=O)c(C(=O)O)cn(-c4nccs4)c3n2)C[C@@H]1OC [NCGC00346437-01] |  | 15.1045% |  | 64.0102% | 488 nM | 71.6056% | 
C=CCNC1=C2C[C@@H](C)C[C@H](OC)[C@H](O)[C@@H](C)/C=C(\C)[C@H](OC(N)=O)[C@@H](OC)/C=C\C=C(/C)C(=O)NC(=CC1=O)C2=O [NCGC00163424-03, tanespimycin] | 442 nM | 23.7455% | 83.6% | 96.2287% |  |  | 
C=CCn1c(=O)c2cnc(Nc3ccc(N4CCN(C)CC4)cc3)nc2n1-c1cccc(C(C)(C)O)n1 [NCGC00263183-01, MK 1775] | 343 nM | 21.7344% | 77.9% | 63.0447% |  |  | 
CCC(=C/[C@H](C)C/C=C/C(C)=C/[C@@H](C)C(=O)[C@@H](C)[C@H](O)[C@@H](C)C/C(C)=C/C(=O)O)/C=C/[C@@H]1OC(=O)C=C[C@@H]1C [NCGC00162440-02] |  | 28.333% |  | 90.0621% | 48 nM | 65.4242% | 

Compound | IC50 (ATXN2-luc; Homo sapiens) | min ATXN2-luc (%) (ATXN2-luc) | viability at 24 h (in vitro) | min SC luc (%) (CMV-luc) | IC50 (ATXN2-luc) | min viability (%) (S2, H2 or SC cells; [1]) | min viability (%) (S2, H2 or SC cells)
COc1cc2ncn(-c3cc(OCc4ccccc4C(F)(F)F)c(C(N)=O)s3)c2cc1OC [NCGC00242217-04, GW843682X] | 9770 nM | 57.1311% | 75.5% | 87.9923% |  |  | 
CCNC(=O)c1noc(-c2cc(C(C)C)c(O)cc2O)c1-c1ccc(CN2CCOCC2)cc1 [NCGC00247878-01] |  | 17.8831% |  | 63.2542% | 44 nM | 94.6315% | 
Oc1ccc(-c2ccc(-c3cc(Nc4cccc(CNC5CC5)c4)n[nH]3)cc2)c(O)c1 [NCGC00346954-01] |  | 20.2623% |  | 54.3112% | 545 nM |  | 61.7259%
NC(=O)Nc1cc(-c2cccc(F)c2)sc1C(=O)N[C@H]1CCCNC1 [NCGC00242481-02, AZD7762] |  |  | 78.1% |  |  |  | 
Clc1ccc(C[n+]2cc(-c3ccccc3)n3c2CCCCC3)c(Cl)c1.[Br-] [MLS000420216-02] |  | 56.4685% |  | 72.1585% | 8080 nM | 84.5162% | 
C=CCNc1c(O)cc2c(O)c1C[C@@H](C)C[C@H](OC)[C@@H](O)[C@@H](C)C=C(C)[C@H](OC(N)=O)[C@@H](OC)C=CC=C(C)C(=O)N2 [NCGC00346438-01] |  | 24.2069% |  | 94.9947% | 546 nM |  | 91.4914%
Nc1ncnc2c1c(-c1cnc3[nH]ccc3c1)nn2C1CCCC1 [NCGC00346619-01, PP121] |  | 27.4759% |  | 78.0969% | 4160 nM | 50.3878% | 
CC1(C)CC(=O)c2c(C(F)(F)F)nn(-c3ccc(C(N)=O)c(NC4CCC(OC(=O)CN)CC4)c3)c2C1 (centres unmarked) [NCGC00346640-01, PF 04929113] |  | 19.9722% |  | 69.7843% | 88 nM |  | 87.146%
Cc1ccc(-c2ncn(-c3ccc(Nc4nccc(-c5cccc(N6CCOCC6)c5)n4)cc3)n2)cn1 [NCGC00263146-01] |  | 15.6493% |  | 82.9006% | 1300 nM |  | 65.3662%
S=C(NCCCN1CCOCC1)N1CCN(c2nc(-c3ccccc3)cs2)CC1 [MLS000706289-02] |  | 61.6491% |  | 79.3012% | 6850 nM | 89.1129% | 
O=C(O)c1ccc2c(c1)nc(Nc1cccc(Cl)c1)c1ccncc12 [NCGC00263192-02] |  | 45.6416% |  | 93.7801% | 10200 nM |  | 77.6315%
COc1c(C)cnc(Cn2cnc3c(Cl)nc(N)nc32)c1C [NCGC00247877-01] |  | 17.8512% |  | 68.1668% | 329 nM |  | 91.8481%
CCNC(=O)c1cc2c(-c3cc(OCCN4CCCC4)c(Cl)cc3Cl)nc(N)nc2s1 [NCGC00247879-01, NVP-BEP800] |  | 22.6428% |  | 85.4541% | 1790 nM |  | 89.936%
CCc1c(O)cc(O)c(C(=O)c2ccc(OCCN3CCOCC3)c(OC)c2)c1CC(=O)N(CCOC)CCOC [NCGC00346685-01, KW-2478] |  | 23.9372% |  | 105.888% | 587 nM |  | 97.6731%
O=C(Nc1cccc(Nc2ncc(Br)c(NCCc3cnc[nH]3)n2)c1)N1CCCC1 [NCGC00346687-01, BX-912] |  | 54.9395% |  | 100.351% | 8890 nM |  | 84.397%

From publication PMC9356275, “A quantitative high-throughput screen identifies compounds that lower expression of the SCA2-and ALS-associated gene ATXN2” (The Journal of Biological Chemistry, 2022)
